The compounds below were run against GCN2 (Homo sapiens (Human), UniProt Q9P2K8) (assay: GCN2 Biochemical Assay (TR-FRET, GFP-eIF2S1 substrate phosphorylation)). Conditions: read-out: IC50 (GCN2 Inhibitory Activity).
How it was run: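 In-house GCN2 (1.6 nM 2× stock) phosphorylates GFP-eIF2S1 (50 nM 2× stock) with ATP (0.2 mM 2× stock) and tRNA, pH 7.5, 70 min at room temperature; 10-point 3.16-fold compound series. TR-FRET detection with Tb-anti-phospho antibody, 2–3 h, Ex 340/Em 490/520 nm; artifact plate spiked with phospho-substrate.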

Sequence of GCN2 (Q9P2K8 whole entry): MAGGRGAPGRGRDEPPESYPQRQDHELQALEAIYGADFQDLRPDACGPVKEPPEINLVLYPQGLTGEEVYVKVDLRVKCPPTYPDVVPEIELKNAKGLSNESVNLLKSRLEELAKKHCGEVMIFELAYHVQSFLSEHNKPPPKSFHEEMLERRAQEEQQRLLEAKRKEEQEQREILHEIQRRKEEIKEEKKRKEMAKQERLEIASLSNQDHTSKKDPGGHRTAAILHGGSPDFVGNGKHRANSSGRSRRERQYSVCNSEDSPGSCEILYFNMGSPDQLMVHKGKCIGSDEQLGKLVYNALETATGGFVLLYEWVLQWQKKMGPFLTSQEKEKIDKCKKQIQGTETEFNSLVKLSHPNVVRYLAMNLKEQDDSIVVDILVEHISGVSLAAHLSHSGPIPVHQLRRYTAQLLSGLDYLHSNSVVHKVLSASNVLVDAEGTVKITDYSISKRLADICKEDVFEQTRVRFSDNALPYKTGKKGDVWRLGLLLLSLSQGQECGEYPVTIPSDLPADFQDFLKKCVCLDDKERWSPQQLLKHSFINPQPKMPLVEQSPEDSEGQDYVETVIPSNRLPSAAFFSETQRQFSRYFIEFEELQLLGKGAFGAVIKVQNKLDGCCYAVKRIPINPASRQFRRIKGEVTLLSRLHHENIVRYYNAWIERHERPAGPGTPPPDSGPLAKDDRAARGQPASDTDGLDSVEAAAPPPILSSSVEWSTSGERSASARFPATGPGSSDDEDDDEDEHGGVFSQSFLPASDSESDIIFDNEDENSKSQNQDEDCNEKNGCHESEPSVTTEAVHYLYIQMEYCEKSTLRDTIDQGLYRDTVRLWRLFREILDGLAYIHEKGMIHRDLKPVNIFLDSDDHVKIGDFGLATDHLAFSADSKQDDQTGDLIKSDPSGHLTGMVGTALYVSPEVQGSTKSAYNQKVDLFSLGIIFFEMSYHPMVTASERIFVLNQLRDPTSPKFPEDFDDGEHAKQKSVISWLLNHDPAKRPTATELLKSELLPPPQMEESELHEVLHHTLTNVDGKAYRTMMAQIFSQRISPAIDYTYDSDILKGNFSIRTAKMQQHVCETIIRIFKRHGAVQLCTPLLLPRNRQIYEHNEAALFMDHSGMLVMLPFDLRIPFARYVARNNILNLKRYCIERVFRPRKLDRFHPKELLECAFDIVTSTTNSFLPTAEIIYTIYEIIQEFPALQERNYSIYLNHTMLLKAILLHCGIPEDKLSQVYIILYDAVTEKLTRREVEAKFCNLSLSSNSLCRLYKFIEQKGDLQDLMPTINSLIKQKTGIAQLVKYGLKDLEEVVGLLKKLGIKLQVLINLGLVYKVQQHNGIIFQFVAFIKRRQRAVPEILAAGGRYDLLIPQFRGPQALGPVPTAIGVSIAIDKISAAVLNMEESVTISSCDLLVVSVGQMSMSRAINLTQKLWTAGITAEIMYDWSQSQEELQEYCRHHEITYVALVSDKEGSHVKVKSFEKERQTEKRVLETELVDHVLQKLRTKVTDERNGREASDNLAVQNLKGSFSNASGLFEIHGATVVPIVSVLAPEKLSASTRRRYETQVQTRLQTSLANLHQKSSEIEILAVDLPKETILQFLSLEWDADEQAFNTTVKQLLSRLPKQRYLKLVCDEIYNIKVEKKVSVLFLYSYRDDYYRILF

IC50 [nM]	Structure (SMILES)
10 to 100	Cc1cnc(Nc2cc(C)n(C)n2)nc1-c1c[nH]c2c(NC(=O)CN3CC[C@H](Oc4nc(C(=O)NC5CC5)co4)C3)cccc12 [Example 127, (S)-N-cyclopropyl-2-((1-(2-((3-(2-((1,5-dimethyl-1H-pyrazol-3-yl)amino)-5-methylpyrimidin-4-yl)-1H-indol-7-yl)amino)-2-oxoethyl)pyrrolidin-3-yl)oxy)oxazole-4-carboxamide]
10 to 100	Cc1cnc(Nc2cc(C)n(C)n2)nc1-c1c[nH]c2c(NC(=O)CN3CC[C@H](Oc4nccc(C(=O)O)n4)C3)cccc12 [Example 128, (S)-2-((1-(2-((3-(2-((1,5-dimethyl-1H-pyrazol-3-yl)amino)-5-methylpyrimidin-4-yl)-1H-indol-7-yl)amino)-2-oxoethyl)pyrrolidin-3-yl)oxy)pyrimidine-4-carboxylic acid]
10 to 100	Cc1cnc(Nc2cc(C)n(C)n2)nc1-c1c[nH]c2c(NC(=O)CN3CC[C@H](Oc4nccc(C(N)=O)n4)C3)cccc12 [Example 129, (S)-2-((1-(2-((3-(2-((1,5-dimethyl-1H-pyrazol-3-yl)amino)-5-methylpyrimidin-4-yl)-1H-indol-7-yl)amino)-2-oxoethyl)pyrrolidin-3-yl)oxy)pyrimidine-4-carboxamide]
10 to 100	CNC(=O)c1ccnc(O[C@H]2CCN(CC(=O)Nc3cccc4c(-c5nc(Nc6cc(C)n(C)n6)ncc5C)c[nH]c34)C2)n1 [Example 130, (S)-2-((1-(2-((3-(2-((1,5-dimethyl-1H-pyrazol-3-yl)amino)-5-methylpyrimidin-4-yl)-1H-indol-7-yl)amino)-2-oxoethyl)pyrrolidin-3-yl)oxy)-N-methylpyrimidine-4-carboxamide]
10 to 100	Cc1cnc(Nc2cc(C)n(C)n2)nc1-c1c[nH]c2c(NC(=O)CN3CC[C@H](Oc4nccc(C(=O)N(C)C)n4)C3)cccc12 [Example 131, (S)-2-((1-(2-((3-(2-((1,5-dimethyl-1H-pyrazol-3-yl)amino)-5-methylpyrimidin-4-yl)-1H-indol-7-yl)amino)-2-oxoethyl)pyrrolidin-3-yl)oxy)-N,N-dimethylpyrimidine-4-carboxamide]
< 10	Cc1cnc(Nc2cc(C)n(C)n2)nc1-c1c[nH]c2c(NC(=O)CN3CC[C@H](Oc4cncc(C(N)=O)n4)C3)cccc12 [Example 132, (S)-6-((1-(2-((3-(2-((1,5-dimethyl-1H-pyrazol-3-yl)amino)-5-methylpyrimidin-4-yl)-1H-indol-7-yl)amino)-2-oxoethyl)pyrrolidin-3-yl)oxy)pyrazine-2-carboxamide]
< 10	CNC(=O)c1cncc(O[C@H]2CCN(CC(=O)Nc3cccc4c(-c5nc(Nc6cc(C)n(C)n6)ncc5C)c[nH]c34)C2)n1 [Example 133, (S)-6-((1-(2-((3-(2-((1,5-dimethyl-1H-pyrazol-3-yl)amino)-5-methylpyrimidin-4-yl)-1H-indol-7-yl)amino)-2-oxoethyl)pyrrolidin-3-yl)oxy)-N-methylpyrazine-2-carboxamide]
< 10	Cc1cnc(Nc2cc(C)n(C)n2)nc1-c1c[nH]c2c(NC(=O)CN3CC[C@H](Oc4ncnc(N)n4)C3)cccc12 [Example 134, (S)-2-(3-((4-amino-1,3,5-triazin-2-yl)oxy)pyrrolidin-1-yl)-N-(3-(2-((1,5-dimethyl-1H-pyrazol-3-yl)amino)-5-methylpyrimidin-4-yl)-1H-indol-7-yl)acetamide]
< 10	CNc1ncnc(O[C@H]2CCN(CC(=O)Nc3cccc4c(-c5nc(Nc6cc(C)n(C)n6)ncc5C)c[nH]c34)C2)n1 [Example 135, (S)-N-(3-(2-((1,5-dimethyl-1H-pyrazol-3-yl)amino)-5-methylpyrimidin-4-yl)-1H-indol-7-yl)-2-(3-((4-(methylamino)-1,3,5-triazin-2-yl)oxy)pyrrolidin-1-yl)acetamide]
< 10	Cc1cnc(Nc2cc(C)n(C)n2)nc1-c1c[nH]c2c(NC(=O)CN3CC[C@H](Oc4ncnc(N(C)C)n4)C3)cccc12 [Example 136, (S)-N-(3-(2-((1,5-dimethyl-1H-pyrazol-3-yl)amino)-5-methylpyrimidin-4-yl)-1H-indol-7-yl)-2-(3-((4-(dimethylamino)-1,3,5-triazin-2-yl)oxy)pyrrolidin-1-yl)acetamide]
< 10	Cc1cnc(Nc2cc(C)n(C)n2)nc1-c1c[nH]c2c(NC(=O)CN3CC[C@H](Oc4ncnc(NC5CC5)n4)C3)cccc12 [Example 137, (S)-2-(3-((4-(cyclopropylamino)-1,3,5-triazin-2-yl)oxy)pyrrolidin-1-yl)-N-(3-(2-((1,5-dimethyl-1H-pyrazol-3-yl)amino)-5-methylpyrimidin-4-yl)-1H-indol-7-yl)acetamide]
< 10	Cc1cnc(Nc2cc(C)n(C)n2)nc1-c1c[nH]c2c(NC(=O)CN3CC[C@H](Oc4nc(N)nc(N)n4)C3)cccc12 [Example 138, (S)-2-(3-((4,6-diamino-1,3,5-triazin-2-yl)oxy)pyrrolidin-1-yl)-N-(3-(2-((1,5-dimethyl-1H-pyrazol-3-yl)amino)-5-methylpyrimidin-4-yl)-1H-indol-7-yl)acetamide]
< 10	Cc1cnc(Nc2cc(C)n(C)n2)nc1-c1c[nH]c2c(NC(=O)CN3CC[C@H](Oc4nc(N)nc(N5CCCC5)n4)C3)cccc12 [Example 139, (S)-2-(3-((4-amino-6-(pyrrolidin-1-yl)-1,3,5-triazin-2-yl)oxy)pyrrolidin-1-yl)-N-(3-(2-((1,5-dimethyl-1H-pyrazol-3-yl)amino)-5-methylpyrimidin-4-yl)-1H-indol-7-yl)acetamide]
< 10	Cc1cnc(Nc2cc(C)n(C)n2)nc1-c1c[nH]c2c(NC(=O)CN3CC[C@H](Oc4cc(N)ncn4)C3)cccc12 [Example 140, (S)-2-(3-((6-aminopyrimidin-4-yl)oxy)pyrrolidin-1-yl)-N-(3-(2-((1,5-dimethyl-1H-pyrazol-3-yl)amino)-5-methylpyrimidin-4-yl)-1H-indol-7-yl)acetamide]
< 10	CNc1cc(O[C@H]2CCN(CC(=O)Nc3cccc4c(-c5nc(Nc6cc(C)n(C)n6)ncc5C)c[nH]c34)C2)ncn1 [Example 141, (S)-N-(3-(2-((1,5-dimethyl-1H-pyrazol-3-yl)amino)-5-methylpyrimidin-4-yl)-1H-indol-7-yl)-2-(3-((6-(methylamino)pyrimidin-4-yl)oxy)pyrrolidin-1-yl)acetamide]
< 10	CCNc1cc(O[C@H]2CCN(CC(=O)Nc3cccc4c(-c5nc(Nc6cc(C)n(C)n6)ncc5C)c[nH]c34)C2)ncn1 [Example 142, (S)-N-(3-(2-((1,5-dimethyl-1H-pyrazol-3-yl)amino)-5-methylpyrimidin-4-yl)-1H-indol-7-yl)-2-(3-((6-(ethylamino)pyrimidin-4-yl)oxy)pyrrolidin-1-yl)acetamide]
< 10	CCCNc1cc(O[C@H]2CCN(CC(=O)Nc3cccc4c(-c5nc(Nc6cc(C)n(C)n6)ncc5C)c[nH]c34)C2)ncn1 [Example 143, (S)-N-(3-(2-((1,5-dimethyl-1H-pyrazol-3-yl)amino)-5-methylpyrimidin-4-yl)-1H-indol-7-yl)-2-(3-((6-(propylamino)pyrimidin-4-yl)oxy)pyrrolidin-1-yl)acetamide]
< 10	CCCCNc1cc(O[C@H]2CCN(CC(=O)Nc3cccc4c(-c5nc(Nc6cc(C)n(C)n6)ncc5C)c[nH]c34)C2)ncn1 [Example 144, (S)-2-(3-((6-(butylamino)pyrimidin-4-yl)oxy)pyrrolidin-1-yl)-N-(3-(2-((1,5-dimethyl-1H-pyrazol-3-yl)amino)-5-methylpyrimidin-4-yl)-1H-indol-7-yl)acetamide]
< 10	Cc1cnc(Nc2cc(C)n(C)n2)nc1-c1c[nH]c2c(NC(=O)CN3CC[C@H](Oc4cc(NCCO)ncn4)C3)cccc12 [Example 145, (S)-N-(3-(2-((1,5-dimethyl-1H-pyrazol-3-yl)amino)-5-methylpyrimidin-4-yl)-1H-indol-7-yl)-2-(3-((6-((2-hydroxyethyl)amino)pyrimidin-4-yl)oxy)pyrrolidin-1-yl)acetamide]
< 10	Cc1cnc(Nc2cc(C)n(C)n2)nc1-c1c[nH]c2c(NC(=O)CN3CC[C@H](Oc4cc(NCCCO)ncn4)C3)cccc12 [Example 146, (S)-N-(3-(2-((1,5-dimethyl-1H-pyrazol-3-yl)amino)-5-methylpyrimidin-4-yl)-1H-indol-7-yl)-2-(3-((6-((3-hydroxypropyl)amino)pyrimidin-4-yl)oxy)pyrrolidin-1-yl)acetamide]
< 10	COCCNc1cc(O[C@H]2CCN(CC(=O)Nc3cccc4c(-c5nc(Nc6cc(C)n(C)n6)ncc5C)c[nH]c34)C2)ncn1 [Example 147, (S)-N-(3-(2-((1,5-dimethyl-1H-pyrazol-3-yl)amino)-5-methylpyrimidin-4-yl)-1H-indol-7-yl)-2-(3-((6-((2-methoxyethyl)amino)pyrimidin-4-yl)oxy)pyrrolidin-1-yl)acetamide]
< 10	Cc1cnc(Nc2cc(C)n(C)n2)nc1-c1c[nH]c2c(NC(=O)CN3CC[C@H](Oc4cc(NCCCN(C)C)ncn4)C3)cccc12 [Example 148, (S)-N-(3-(2-((1,5-dimethyl-1H-pyrazol-3-yl)amino)-5-methylpyrimidin-4-yl)-1H-indol-7-yl)-2-(3-((6-((3-(dimethylamino)propyl)amino)pyrimidin-4-yl)oxy)pyrrolidin-1-yl)acetamide]
< 10	Cc1cnc(Nc2cc(C)n(C)n2)nc1-c1c[nH]c2c(NC(=O)CN3CC[C@H](Oc4cc(NCc5ccccc5)ncn4)C3)cccc12 [Example 149, (S)-2-(3-((6-(benzylamino)pyrimidin-4-yl)oxy)pyrrolidin-1-yl)-N-(3-(2-((1,5-dimethyl-1H-pyrazol-3-yl)amino)-5-methylpyrimidin-4-yl)-1H-indol-7-yl)acetamide]
10 to 100	Cc1cnc(Nc2cc(C)n(C)n2)nc1-c1c[nH]c2c(NC(=O)CN3CC[C@H](Oc4cc(NCCc5ccccc5)ncn4)C3)cccc12 [Example 150, (S)-N-(3-(2-((1,5-dimethyl-1H-pyrazol-3-yl)amino)-5-methylpyrimidin-4-yl)-1H-indol-7-yl)-2-(3-((6-(phenethylamino)pyrimidin-4-yl)oxy)pyrrolidin-1-yl)acetamide]
